Test results published in patent US8471005B2 (Cephalon, Inc., priority 2008, dated 2013).
Where two headings read alike, the source gives them in different places. Each block holds one compound with its values, some of them ahead of it.

What was measured:
[1] = molecular target: T1, ALK (Homo sapiens, UniProt Q9UM73); assay: ALK Kinase Assay (ELISA/TRF, PLC-γ substrate); format: biochemical; settings: read-out: ALK Potency
T1 construct: host or cells: baculovirus expression system
Method in brief: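 Wells were coated with 10 μg/mL phospholipase C-γ substrate in TBS, and the reaction was started by adding 30 ng/ml ALK enzyme and run at 37° C for 15 minutes. Phosphorylated product was detected with Eu-N1-labeled PT66 antibody, and IC50 values came from sigmoidal variable-slope fits of percent inhibition against log concentration.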

[2] = molecular target: T2, JAK2 (Homo sapiens, UniProt O60674); assay: Recombinant Human JAK2 Kinase Assay (TRF); format: biochemical; settings: read-out: JAK2 Potency
T2 construct: host or cells: baculovirus expression system
Method in brief: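 Europium-labelled PY100 antibody reported tyrosine phosphorylation of a Neutravidin-captured biotinyl 15-mer peptide by JAK2 (baculovirus-expressed, 15 ng/ml). Conditions: 20 mM HEPES pH 7.2, 0.2 μM ATP, 1 mM MnCl2, 0.1% BSA, DMSO 2.5% final, 20 min at room temperature.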

[3] = ALK kinase inhibition, 1 μM ATP
[4] = JAK2 kinase inhibition, 0.2 μM ATP

T2 sequence (O60674 whole entry): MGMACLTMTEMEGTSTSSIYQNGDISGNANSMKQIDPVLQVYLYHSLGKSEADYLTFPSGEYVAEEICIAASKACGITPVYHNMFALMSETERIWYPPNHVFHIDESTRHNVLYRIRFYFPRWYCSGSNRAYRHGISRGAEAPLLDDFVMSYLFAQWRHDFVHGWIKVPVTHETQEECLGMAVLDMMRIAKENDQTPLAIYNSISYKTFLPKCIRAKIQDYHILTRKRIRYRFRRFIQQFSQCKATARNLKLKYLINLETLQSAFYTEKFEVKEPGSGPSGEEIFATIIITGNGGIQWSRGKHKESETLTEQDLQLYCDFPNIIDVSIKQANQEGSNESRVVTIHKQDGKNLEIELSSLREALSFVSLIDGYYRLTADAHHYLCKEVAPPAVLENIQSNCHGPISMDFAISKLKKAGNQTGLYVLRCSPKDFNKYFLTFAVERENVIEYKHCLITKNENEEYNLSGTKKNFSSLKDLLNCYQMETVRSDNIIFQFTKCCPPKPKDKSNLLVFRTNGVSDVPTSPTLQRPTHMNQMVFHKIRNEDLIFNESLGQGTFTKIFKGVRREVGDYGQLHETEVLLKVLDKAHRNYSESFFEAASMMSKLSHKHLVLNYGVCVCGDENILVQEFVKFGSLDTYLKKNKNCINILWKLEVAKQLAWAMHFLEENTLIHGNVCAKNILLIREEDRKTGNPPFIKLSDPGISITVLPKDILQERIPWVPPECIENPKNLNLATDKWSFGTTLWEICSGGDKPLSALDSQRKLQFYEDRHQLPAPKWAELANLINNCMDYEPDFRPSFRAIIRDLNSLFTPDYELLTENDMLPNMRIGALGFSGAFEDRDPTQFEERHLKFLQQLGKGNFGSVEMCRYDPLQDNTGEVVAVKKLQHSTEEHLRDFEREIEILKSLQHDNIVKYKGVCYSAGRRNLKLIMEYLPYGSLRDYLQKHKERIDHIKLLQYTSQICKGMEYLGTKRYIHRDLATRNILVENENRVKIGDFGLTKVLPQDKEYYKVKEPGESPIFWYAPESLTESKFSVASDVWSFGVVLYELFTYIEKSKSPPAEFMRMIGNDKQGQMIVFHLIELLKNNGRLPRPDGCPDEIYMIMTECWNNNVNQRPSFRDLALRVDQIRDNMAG
T1 sequence (Q9UM73 19-1620): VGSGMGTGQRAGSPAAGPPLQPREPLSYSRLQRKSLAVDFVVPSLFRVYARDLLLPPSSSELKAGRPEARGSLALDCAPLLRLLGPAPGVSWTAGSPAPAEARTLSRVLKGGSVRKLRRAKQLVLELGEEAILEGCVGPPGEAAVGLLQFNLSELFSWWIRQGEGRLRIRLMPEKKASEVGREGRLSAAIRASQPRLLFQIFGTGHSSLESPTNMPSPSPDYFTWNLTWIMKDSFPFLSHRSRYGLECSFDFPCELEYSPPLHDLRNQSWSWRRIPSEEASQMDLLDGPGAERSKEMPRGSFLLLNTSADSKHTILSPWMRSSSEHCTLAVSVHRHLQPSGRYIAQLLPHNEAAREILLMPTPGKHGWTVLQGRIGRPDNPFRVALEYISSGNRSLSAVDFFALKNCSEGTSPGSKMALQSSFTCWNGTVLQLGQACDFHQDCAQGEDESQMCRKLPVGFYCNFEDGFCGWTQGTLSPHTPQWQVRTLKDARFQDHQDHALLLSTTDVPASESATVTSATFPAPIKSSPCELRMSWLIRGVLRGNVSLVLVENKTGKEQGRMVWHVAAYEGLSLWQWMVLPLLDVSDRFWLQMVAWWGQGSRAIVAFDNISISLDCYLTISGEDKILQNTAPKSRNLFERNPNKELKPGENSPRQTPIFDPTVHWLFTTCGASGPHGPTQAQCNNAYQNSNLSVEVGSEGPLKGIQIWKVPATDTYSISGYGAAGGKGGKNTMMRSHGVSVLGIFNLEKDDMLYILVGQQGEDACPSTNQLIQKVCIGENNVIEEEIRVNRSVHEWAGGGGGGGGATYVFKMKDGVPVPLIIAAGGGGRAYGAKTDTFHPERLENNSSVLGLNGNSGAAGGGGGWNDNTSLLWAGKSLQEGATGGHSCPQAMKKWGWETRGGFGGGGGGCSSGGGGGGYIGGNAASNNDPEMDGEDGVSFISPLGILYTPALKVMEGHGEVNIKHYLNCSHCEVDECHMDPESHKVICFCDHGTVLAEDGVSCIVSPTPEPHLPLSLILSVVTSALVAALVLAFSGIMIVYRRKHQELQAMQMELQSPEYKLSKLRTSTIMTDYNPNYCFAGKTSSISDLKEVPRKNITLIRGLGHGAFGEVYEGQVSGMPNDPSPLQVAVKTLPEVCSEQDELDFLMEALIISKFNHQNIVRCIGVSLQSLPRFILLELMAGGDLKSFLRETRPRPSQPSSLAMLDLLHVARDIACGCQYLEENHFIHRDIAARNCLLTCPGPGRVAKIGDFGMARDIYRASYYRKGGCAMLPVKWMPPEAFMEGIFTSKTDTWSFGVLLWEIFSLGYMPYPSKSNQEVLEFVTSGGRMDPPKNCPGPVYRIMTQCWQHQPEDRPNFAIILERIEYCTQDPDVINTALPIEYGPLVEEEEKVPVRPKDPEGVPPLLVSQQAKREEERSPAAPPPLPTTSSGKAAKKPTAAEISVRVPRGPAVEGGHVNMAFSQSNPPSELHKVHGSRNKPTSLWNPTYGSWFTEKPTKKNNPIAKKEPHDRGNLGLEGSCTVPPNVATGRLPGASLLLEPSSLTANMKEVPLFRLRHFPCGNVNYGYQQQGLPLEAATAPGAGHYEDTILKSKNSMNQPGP

IC50 [1, 3]: < 100 nM
IC50 [2, 4]: 100 to 1000 nM
Compound: COc1cc([C@]2(C#N)CC[C@H](N3CCOCC3)CC2)ccc1Nc1ncc2ccc(-c3ccccc3N(C)S(C)(=O)=O)n2n1 [Example 1245, N-{2-[2-({4-[trans-1-cyano-4-(morpholin-4-yl)cyclohexyl]-2-methoxyphenyl}amino)pyrrolo[2,1-f][1,2,4]triazin-7-yl]phenyl}-N-methylmethanesulfonamide]

IC50 [1, 3]: < 100 nM
IC50 [2, 4]: 100 to 1000 nM
Compound: COc1ccc(C2CCN(C)CC2)cc1Nc1ncc2ccc(-c3ccccc3N(C)S(C)(=O)=O)n2n1 [Example 774, N-(2-{2-[2-Methoxy-5-(1-methyl-piperidin-4-yl)-phenylamino]-pyrrolo-[2,1-f][1,2,4]triazin-7-yl}-phenyl)-N-methyl-methanesulfonamide]

IC50 [1, 3]: < 100 nM
IC50 [2, 4]: < 100 nM
Compound: CN1CCC(c2ccc(Nc3ncc4ccc(-c5cccc(CCC#N)c5)n4n3)cc2)CC1 [Example 1149, 3-(3-{2-[4-(1-Methyl-piperidin-4-yl)-phenylamino]-pyrrolo[2,1-f][1,2,4]triazin-7-yl}-phenyl)-propionitrile]

IC50 ([1]; ALK Kinase Inhibition): 100 to 1000 nM
IC50 ([2]; JAK2 Kinase Inhibition): < 100 nM
Compound: CC(=O)Nc1cccc(Nc2ncc3ccc(-c4ccccc4N(C)S(C)(=O)=O)n3n2)c1 [Example 1375, N-(3-{7-[2-(Methanesulfonyl-methyl-amino)-phenyl]-pyrrolo[2,1-f][1,2,4]triazin-2-ylamino}-phenyl)-acetamide]

IC50 [1, 3]: < 100 nM
IC50 [2, 4]: < 100 nM
Compound: N#CCCc1cccc(-c2ccc3cnc(Nc4ccc(N5CCN(CCO)CC5)cc4)nn23)c1 [Example 1151, 3-[3-(2-{4-[4-(2-Hydroxy-ethyl)-piperazin-1-yl]-phenylamino}-pyrrolo[2,1-f][1,2,4]triazin-7-yl)-phenyl]-propionitrile]

IC50 [1, 3]: 1000 to 10000 nM
IC50 [2, 4]: < 100 nM
Compound: CCS(=O)(=O)c1cccc(-c2ccc3cnc(Nc4ccc5nc[nH]c5c4)nn23)c1 [Example 1311, (3H-Benzimidazol-5-yl)-[7-(3-ethanesulfonyl-phenyl)-pyrrolo[2,1-f][1,2,4]triazin-2-yl]-amine]

IC50 [1, 3]: < 100 nM
IC50 [2, 4]: 1000 to 10000 nM
Compound: COc1cc2c(cc1Nc1ncc3ccc(-c4ccccc4N(C)S(C)(=O)=O)n3n1)CCC1(CCN(C)CC1)O2 [Example 996, N-(2-{2-[(7-methoxy-1′-methyl-3,4-dihydrospiro[chromene-2,4′-piperidin]-6-yl)amino]pyrrolo[2,1-f][1,2,4]triazin-7-yl}phenyl)-N-methylmethanesulfonamide]

IC50 [1, 3]: 1000 to 10000 nM
IC50 [2, 4]: < 100 nM
Compound: COc1ccc(-c2ccc3cnc(Nc4cnn(CCN5CCOCC5)c4)nn23)cn1 [Example 1192, [7-(6-Methoxy-pyridin-3-yl)-pyrrolo[2,1-f][1,2,4]triazin-2-yl]-[1-(2-morpholin-4-yl-ethyl)-1H-pyrazol-4-yl]-amine]

IC50 [1, 3]: < 100 nM
IC50 [2, 4]: 100 to 1000 nM
Compound: COc1cc2c(cc1Nc1ncc3ccc(-c4ccccc4N(C)S(C)(=O)=O)n3n1)CN(C)C2 [Example 809, N-{2-[2-(6-Methoxy-2-methyl-2,3-dihydro-1H-isoindol-5-ylamino)-pyrrolo[2,1-f][1,2,4]triazin-7-yl]-phenyl}-N-methyl-methanesulfonamide]

IC50 [1, 3]: 1000 to 10000 nM
IC50 [2, 4]: < 100 nM
Compound: CC(=O)N1CCc2ccc(Nc3ncc4ccc(-c5cccc(S(=O)(=O)N6CC[C@H](O)C6)c5)n4n3)cc21 [Example 885, 1-(6-{7-[3-((S)-3-Hydroxy-pyrrolidine-1-sulfonyl)-phenyl]-pyrrolo[2,1-f][1,2,4]triazin-2-ylamino}-2,3-dihydro-indol-1-yl)-ethanone]

IC50 [1, 3]: < 100 nM
IC50 [2, 4]: < 100 nM
Compound: CCNS(=O)(=O)c1cccc(-c2ccc3cnc(Nc4ccc(C5CCN(CC(N)=O)CC5)cc4)nn23)c1 [Example 929, 2-(4-{4-[7-(3-Ethylsulfamoyl-phenyl)-pyrrolo[2,1f][1,2,4]triazin-2-ylamino]-phenyl}-piperidin-1-yl)-acetamide]

IC50 ([1]; ALK Kinase Inhibition): < 100 nM
IC50 ([2]; JAK2 Kinase Inhibition): < 100 nM
Compound: COc1cc(N2CCN(C3CCOCC3)CC2)ccc1Nc1ncc2ccc(-c3ccccc3OC)n2n1 [Example 1472, [7-(2-Methoxy-phenyl)-pyrrolo[2,1-f][1,2,4]triazin-2-yl]-{2-methoxy-4-[4-(tetrahydro-pyran-4-yl)-piperazin-1-yl]-phenyl}-amine]

The next lines start with the compound.

Compound: CS(=O)(=O)c1ccc(-c2ccc3cnc(Nc4ccc(N5CCCCC5)cc4)nn23)cc1 [Example 61, [7-(4-Methanesulfonyl-phenyl)-pyrrolo[2,1-f][1,2,4]triazin-2-yl]-(4-piperidin-1-yl-phenyl)-amine]
IC50 ([1]; ALK Kinase Inhibition): > 10000 nM
IC50 ([2]; JAK2 Kinase Inhibition): < 100 nM

Compound: c1ccc(-c2ccc3cnc(NCc4cccnc4)nn23)cc1 [Example 12, (7-Phenyl-pyrrolo[2,1-f][1,2,4]triazin-2-yl)-pyridin-3-ylmethyl-amine]
IC50 ([1]; ALK Kinase Inhibition): 1000 to 10000 nM
IC50 ([2]; JAK2 Kinase Inhibition): 1000 to 10000 nM

Compound: CN1CCN(Cc2ccc(Nc3ncc4ccc(-c5ccc(S(C)(=O)=O)cc5)n4n3)cc2)CC1 [Example 355, [7-(4-Methanesulfonyl-phenyl)-pyrrolo[2,1-f][1,2,4]triazin-2-yl]-[4-(4-methyl-piperazin-1-ylmethyl)-phenyl]-amine]
IC50 ([1]; ALK Kinase Inhibition): 1000 to 10000 nM
IC50 ([2]; JAK2 Kinase Inhibition): < 100 nM

Compound: COc1ccc(-c2ccn3nc(Nc4ccc(N5CCN(C)CC5)cc4)ncc23)cc1 [Example 724, [5-(4-Methoxy-phenyl)-pyrrolo[2,1-f][1,2,4]triazin-2-yl]-[4-(4-methyl-piperazin-1-yl)-phenyl]-amine]
IC50 [1, 3]: > 10000 nM
IC50 [2, 4]: > 10000 nM

Compound: COc1ccc(CN2CCOCC2)cc1Nc1ncc2ccc(-c3ccccc3OC)n2n1 [Example 499, (2-Methoxy-5-morpholin-4-ylmethyl-phenyl)-[7-(2-methoxy-phenyl)-pyrrolo[2,1-f][1,2,4]triazin-2-yl]-amine]
IC50 [1, 3]: 1000 to 10000 nM
IC50 [2, 4]: 100 to 1000 nM

Compound: 7-(2-Methoxy-phenyl)-2-(2-methoxy-4-piperazin-1-ylmethyl-phenoxy)-pyrrolo[2,1-f][1,2,4]triazine [Example 1238]
IC50 [1, 3]: < 100 nM
IC50 [2, 4]: 100 to 1000 nM

Compound: COc1ccccc1-c1ccc2cnc(Nc3ccc4c(c3OC)CC(N3CCOCC3)CCC4)nn12 (racemic) [Example 768, (±)-1-Methoxy-8-morpholin-4-yl-6,7,8,9-tetrahydro-5H-enzocyclohepten-2-yl)-[7-(2-methoxy-phenyl)-pyrrolo[2,1-f][1,2,4]triazin-2-yl]-amine]
IC50 [1, 3]: 100 to 1000 nM
IC50 [2, 4]: 100 to 1000 nM

Compound: CN1C(=O)Cc2cc(Nc3ncc4ccc(Nc5cccnc5N(C)S(C)(=O)=O)n4n3)ccc21 [Example 387, N-Methyl-N-{3-[2-(1-methyl-2-oxo-2,3-dihydro-1H-indol-5-ylamino)-pyrrolo[2,1-f][1,2,4]triazin-7-ylamino]-pyridin-2-yl}-methanesulfonamide]
IC50 ([1]; ALK Kinase Inhibition): 1000 to 10000 nM
IC50 ([2]; JAK2 Kinase Inhibition): < 100 nM

Compound: CC(C)(C)NS(=O)(=O)c1cccc(-c2ccc3cnc(Nc4ccc(C5CCC(N6CCOCC6)CC5)cc4)nn23)c1 (centres unmarked) [Example 565, N-tert-Butyl-3-{2-[4-(4-morpholin-4-yl-cyclohexyl)-phenylamino]-pyrrolo[2,1-f][1,2,4]triazin-7-yl}-benzenesulfonamide]
IC50 [1, 3]: 100 to 1000 nM
IC50 [2, 4]: < 100 nM

Compound: COc1cc(N2CCCC(N3CCN(C(=O)OCc4ccccc4)CC3)C2)ccc1Nc1ncc2ccc(-c3ccccc3OC)n2n1 (centres unmarked) [Example 234, 4-(1-{3-Methoxy-4-[7-(2-methoxy-phenyl)-pyrrolo[2,1-f][1,2,4]triazin-2-ylamino]-phenyl}-piperidin-3-yl)-piperazine-1-carboxylic acid benzyl ester]
IC50 ([1]; ALK Kinase Inhibition): 100 to 1000 nM
IC50 ([2]; JAK2 Kinase Inhibition): 1000 to 10000 nM

Compound: COc1ccccc1-c1ccc2cnc(Nc3ccc(F)c(N4CCOCC4)c3)nn12 [Example 389, (4-Fluoro-3-morpholin-4-yl-phenyl)-[7-(2-methoxy-phenyl)-pyrrolo[2,1-f][1,2,4]triazin-2-yl]-amine]
IC50 ([1]; ALK Kinase Inhibition): 100 to 1000 nM
IC50 ([2]; JAK2 Kinase Inhibition): < 100 nM

Compound: CN1CCN(CC2CCCN(c3ccc(Nc4ncc5ccc(-c6ccc(S(C)(=O)=O)cc6)n5n4)cc3)C2)CC1 (centres unmarked) [Example 457, [7-(4-Methanesulfonyl-phenyl)-pyrrolo[2,1-f][1,2,4]triazin-2-yl]-{4-[3-(4-methyl-piperazin-1-ylmethyl)-piperidin-1-yl]-phenyl}-amine]
IC50 ([1]; ALK Kinase Inhibition): 100 to 1000 nM
IC50 ([2]; JAK2 Kinase Inhibition): < 100 nM

Compound: CC(C)(C)NS(=O)(=O)c1cccc(-c2ccc3cnc(Nc4ccc5c(c4)NC(=O)C5(C)C)nn23)c1 [Example 655, N-tert-Butyl-3-[2-(3,3-dimethyl-2-oxo-2,3-dihydro-1H-indol-6-ylamino)-pyrrolo[2,1-f][1,2,4]triazin-7-yl]-benzenesulfonamide]
IC50 [1, 3]: 100 to 1000 nM
IC50 [2, 4]: < 100 nM

Compound: COCCN1CCc2ccc(Nc3ncc4ccc(-c5ccccc5OC)n4n3)cc2CC1 [Example 30, [3-(2-Methoxy-ethyl)-2,3,4,5-tetrahydro-1H-benzo[d]azepin-7-yl]-[7-(2-methoxy-phenyl)-pyrrolo[2,1-f][1,2,4]triazin-2-yl]-amine]
IC50 ([1]; ALK Kinase Inhibition): < 100 nM
IC50 ([2]; JAK2 Kinase Inhibition): < 100 nM

Compound: CN1CCC(c2ccc(Nc3ncc4ccc(-c5cccc(N(C)C)c5)n4n3)cc2)CC1 [Example 662, [7-(3-Dimethylamino-phenyl)-pyrrolo[2,1-f][1,2,4]triazin-2-yl]-[4-(1-methyl-piperidin-4-yl)-phenyl]-amine]
IC50 [1, 3]: < 100 nM
IC50 [2, 4]: < 100 nM

Compound: COc1ccccc1-c1ccc2cnc(Nc3ccc4c(c3)OCC(=O)N4C)nn12 [Example 647, 7-[7-(2-Methoxy-phenyl)-pyrrolo[2,1-f][1,2,4]triazin-2-ylamino]-4-methyl-4H-benzo[1,4]oxazin-3-one]
IC50 [1, 3]: 100 to 1000 nM
IC50 [2, 4]: < 100 nM
